Where “and” joins values, the source holds several entries; their conditions need not be identical. Equal values may be shown once. Read-outs that look alike come from different tables or passages of the source.
Tests used:
Buffer = assay type: physicochemical; conditions: buffer (pH 7.4), 37°C, 24 hours
[1] = Thermodynamic solubility in water for injection; assay type: physicochemical; conditions: for Solubility: water for injection (pH 6.4), 37 °C, 6 hours
[2] = cited from earlier work
[3] = cited from earlier work; remark: listed apart in the source
[4] = In vitro transport across conjunctiva; conditions: for Cumulative % transport compared with GFX, conjunctiva / Fold improvement in permeability compared to GFX, conjunctiva: 200 μM donor; for Cumulative % transport compared with GFX, conjunctiva: no inhibitor; for Fold improvement in permeability compared to GFX, conjunctiva: pH 7.4, 37 °C; for GFX levels formed in the prodrug group, conjunctiva: during in vitro transport study
Log D = conditions: n-octanol and PBS buffer (pH 7.4), 37 °C; mean ± SD, n = 3
[5] = In vitro transport across SCRPE; conditions: for Cumulative % transport compared with GFX, SCRPE / Fold improvement in permeability compared to GFX, SCRPE: 200 μM donor; for Cumulative % transport compared with GFX, SCRPE: no inhibitor; for Fold improvement in permeability compared to GFX, SCRPE: pH 7.4, 37 °C; for GFX levels formed in the prodrug group, SCRPE: during in vitro transport study
[6] = In vitro transport across cornea; conditions: for Cumulative % transport compared with GFX, cornea / Fold improvement in permeability compared to GFX, cornea: 200 μM donor; for Cumulative % transport compared with GFX, cornea: no inhibitor; for Fold improvement in permeability compared to GFX, cornea: pH 7.4, 37 °C; for GFX levels formed in the prodrug group, cornea: during in vitro transport study
[7] = In vivo tissue distribution and bioconversion after topical eye drop; design: species or system pigmented rabbits
[8] = topical eye drop dosing in rabbits
[9] = MPP+ (500 μM), OCT inhibitor, versus no inhibitor
[10] = absence of OCT inhibitor MPP+, printed as compared to GFX
[11] = 1 hour after topical dose of DMAP-GFX
[12] = α-methyl-DL-tryptophan, ATB (0, +) inhibitor, versus no inhibitor

GFX formed from prodrug (Buffer) [%] | Solubility ([1]; mean ± SD, n = 3) [mg/mL] | Cumulative % transport compared with GFX, conjunctiva [4] | Fold improvement in permeability compared to GFX, conjunctiva [4] | GFX levels formed in the prodrug group, conjunctiva [4] | Log D (pH 7.4) (Log D) | Cumulative % transport compared with GFX, SCRPE [5] | Fold improvement in permeability compared to GFX, SCRPE [5] | GFX levels formed in the prodrug group, SCRPE [5] | Solubility [1] [M] | Cumulative % transport compared with GFX, cornea [6] | Fold improvement in permeability compared to GFX, cornea [6] | GFX levels formed in the prodrug group, cornea [6] | Compound | further results
8.63 | 3.01 ± 0.2 | – | – | – | – | – | – | – | – | – | – | – | COc1c(N2CCNC(C)C2)c(F)cc2c(=O)c(C(=O)NCCCC(=O)O)cn(C3CC3)c12 (racemic) [CP-GFX, (±)-4-(1-cyclopropyl-6-fluoro-8-methoxy-7-(3-methylpiperazin-1-yl)-4-oxo-1,4-dihydroquinoline-3-carboxamido)butanoic acid] | Log D (pH 7.4): 0.11 ± 0.01
– | – | – | – | – | – | – | – | – | – | – | – | – | COc1c(N2CCNC(C)C2)c(F)cc2c(=O)c(C(=O)O)cn(C3CC3)c12 (centres unmarked) [GFX, Gatifloxacin sesquihydrate] | pKa, carboxylic acid (reported) [2]: 5.94; solubility at 6 h ([1]; water for injection, pH 6.4): 2600 µg/mL and 7000 µM; Tmax in vitreous humor ([3]; single eye drop, pigmented rabbits): 1 h; Tmax, conjunctiva [3, 8]: 4.98 min; Tmax, plasma [3, 8]: 4.98 min; Tmax, tear fluid [3, 8]: 4.98 min
9.51 | 33.26 ± 3.0 | significantly higher than GFX | 1.8 fold and 1.85 fold | below the detection limits | 0.05 ± 0.01 | significantly higher than GFX | 1.9 fold and 1.95 fold | below the detection limits | 0.072 | significantly higher than GFX | 1.4 fold and 1.42 fold | below the detection limits | COc1c(N2CCNC(C)C2)c(F)cc2c(=O)c(C(=O)NCCCN(C)C)cn(C3CC3)c12 (racemic) [DMAP-GFX, (±)-1-cyclopropyl-N-(3-(dimethylamino)propyl)-6-fluoro-8-methoxy-7-(3-methylpiperazin-1-yl)-4-oxo-1,4-dihydroquinoline-3-carboxamide] | Cumulative % transport in the presence of MPP+, conjunctiva [4, 9]: significantly lower; Cumulative % transport in the presence of MPP+, SCRPE [5, 9]: significantly lower; Permeability in the absence of inhibitor, fold higher, SCRPE [5, 10]: 2.06 fold; Fold higher solubility than CP-GFX ([1]; compared to CP-GFX (6.0 mM)): 12 fold; Fold greater solubility than GFX ([1]; compared to GFX): 12.8 fold; Cumulative % transport in the presence of MPP+, cornea [6, 9]: significantly lower; Permeability in the absence of inhibitor, fold higher, cornea [6, 10]: 1.42 fold; Formed drug (GFX) levels as % of the total drug, CRPE [7, 11]: 13%; Formed drug (GFX) levels as % of the total drug, conjunctiva [7, 11]: 70%; Formed drug (GFX) levels as % of the total drug, cornea [7, 11]: 8%; Formed drug (GFX) levels as % of the total drug, iris-ciliary body [7, 11]: 24%; Formed drug (GFX) levels as % of the total drug, retina [7, 11]: 55%; Formed drug (GFX) levels as % of the total drug, sclera [7, 11]: 29%; Formed drug (GFX) levels as % of the total drug, vitreous humor [7, 11]: 60%; Drug levels in the remaining tissues, prodrug versus drug group ([7]; 1 hour after topical eye drop, tissues other than vitreous humor and CRPE): not significantly different
8.97 | 2.16 ± 0.3 | did not show any improvement | did not show any improvement | below the detection limits | 1.04 ± 0.02 | did not show any improvement | did not show any improvement | below the detection limits | 0.004 | did not show any improvement | did not show any improvement | below the detection limits | COc1c(N2CCN(C(=O)[C@@H](N)CC(C)C)C(C)C2)c(F)cc2c(=O)c(C(=O)O)cn(C3CC3)c12 (some centres unmarked) [APM-GFX] | Transport in the presence of α-methyl-DL-tryptophan, conjunctiva [4, 12]: did not show any change; Transport in the presence of α-methyl-DL-tryptophan, SCRPE [5, 12]: did not show any change; Transport in the presence of α-methyl-DL-tryptophan, cornea [6, 12]: did not show any change
